According to patent EP3925949A1, “AZIDO COMPOUNDS AND METHOD FOR MONITORING ACID CERAMIDASE ACTIVITY IN INTACT CELLS USING THEM” (Consejo Superior de Investigaciones Científicas (CSIC), priority 2020, dated 2021):

Tests used:
acid ceramidase (AC) [1] = molecular target: T1, acid ceramidase (AC) (Homo sapiens, UniProt Q13510); assay: AC activity in intact cells by UPLC-HRMS quantification of RBM5-019 and reacylated products; assay type: cell-based; design: expressed in transfected cells; host or cells: A375/+Dox (overexpressing AC); settings: A375/+Dox
T1 sequence (Q13510 143-395 limits assumed): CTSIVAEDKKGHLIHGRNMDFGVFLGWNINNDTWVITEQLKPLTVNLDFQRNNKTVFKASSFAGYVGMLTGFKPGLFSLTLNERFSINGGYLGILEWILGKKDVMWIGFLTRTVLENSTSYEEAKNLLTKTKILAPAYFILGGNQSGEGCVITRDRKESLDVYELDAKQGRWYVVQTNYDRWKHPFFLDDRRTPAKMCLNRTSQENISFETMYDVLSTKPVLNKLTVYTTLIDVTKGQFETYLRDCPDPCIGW
T1 sequence (Q13510 22-142 limits assumed): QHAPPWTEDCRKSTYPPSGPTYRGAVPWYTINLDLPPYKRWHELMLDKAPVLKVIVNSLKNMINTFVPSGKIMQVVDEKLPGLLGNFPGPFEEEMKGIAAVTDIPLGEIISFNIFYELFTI
Procedure: Cells were seeded at 5 × 10^5 cells/mL into 6 well plates (1 mL/well) and were allowed to adhere for 24 h. Medium was replaced with fresh medium containing RBM5-177, RBM5-019 or RBM2-37 (5 μM final concentration). After 30 min, medium was removed; cells were washed with 400 μL PBS and harvested with 400 μL Trypsin-EDTA and 600 μL of medium. NC recombinant enzyme, lysates from A375-AC overexpressing cells, MEF5 or microsomes from HeLa T-Rex ACER1-TET-ON and HeLa T-Rex ACER2-TET-ON cells stably overexpress ACER1 orACER2 respectively were incubated with RBM5-177 or RBM5-019 (10 μM final concentration) for 3 h in the corresponding ceramidase activity buffer. Cell pellets were resuspended with 100 μL of H2O and mixed with 750 μL of methanol: chloroform, 2:1. Samples were heated at 48°C overnight and next day, 75 μL of 1 M KOH in methanol were added, followed by 2 h incubation at 37°C. Afterwards, the saponification was neutralised with 75 μL of 1 M acetic acid and solvent was removed using a […] (Thermo Scientific). Sphingolipid extracts, fortified with internal standards (N-dodecanoylsphingosine, N-dodecanoylglucosylsphingosine, N-dodecanoylsphingosylphosphorylcoline and C17-sphinganine 0.2 nmol each) were solubilised in 150 μL of methanol. Samples were then centrifuged at 9,300 g for 3 min and 130 μL of the supernatant were injected to a Waters Aquity UPLC system connected to a Waters LCT Premier Orthogonal Accelerated Time of Flight Mass Spectrometer (Waters,Milford, MA, USA) operated in positive electrospray ionisation mode. Full scan spectra from 50 to 1500 Da were acquired and individual spectra were summed to produce data points each 0.2 s. Mass accuracy and reproducibility were maintained by using an independent reference spray by the LockSpray interference. The analytical column was a 100 mm x2.1 mm i.d., 1.7 μm C8 Acquity UPLC BEH (Waters). The two mobile phases were phase A: methanol/water/formic acid (74/25/1 v/v/v); phase B: methanol/formic acid (99/1 v/v), both also contained 5 mM ammonium formate. […]

acid ceramidase (AC) [2] = molecular target: T1, acid ceramidase (AC); assay: AC activity-dependence of labelling (fluorescence confocal microscopy); assay type: cell-based; design: expressed in transfected cells; host or cells: FD/AC (overexpressing AC); settings: FD/AC cells, SOCLAC 5 µM 1 h pretreatment, RBM5-177 5 µM 4 h
Procedure: Cells were seeded at 1 × 10^5 cells/mL on glass-bottom plates and allowed to adhere for 24 h. For golgi staining, cells were incubated with 40 µL/well of CellLight Golgi-RFP BacMam 2.0 for 24 h. […] After this time, the medium was replaced with fresh medium containing CO-1 (1 µM final concentration), and cells were incubated for 10 min. Then cells were washed 3 times with DMEM for 5 min at 37 °C, 75 nM LysoTracker Red DND-99 or 75 nM Mitotracker in phenol red-free DMEM was added to stain lysosomes or mitochondria, and cells were kept in the incubator for microscope analysis. Staining was viewed with a Zeiss LSM 880 confocal microscope or Leica TCS SP8-Hyvolution. Image analysis was performed using Fiji software.^[7] To measure the Manders's and Pearson's coefficients a threshold including organelles and discarding the background was set. Co-localization coefficients were measured using the JaCoP plugin (S. Bolte et al. J. Microsc. 2006, 224, 213-232) on the different stacks of images (at least n=4) with each stack containing 3-10 cells.

effect on levels of RBM5-19 and reacylated products (acid ceramidase (AC) [1]; SOCLAC 5 µM 1 h pre treatment, RBM5-177 5 µM 4 h (Fig. 6B)): dropped dramatically
effect on lysosome labelling by RBM5-177/CO-1 (acid ceramidase (AC) [2]): no lysosomal labelling occurred
SMILES: CCCCCCCCCCCCC/C=C/[C@@H](O)[C@H](CO)NC(=O)CCl [SOCLAC]
effect on formation of RBM5-19 and transacylated products (acid ceramidase (AC) [1]; SOCLAC 5 µM 1 h, RBM5-177 5 µM 4 h (Fig. 4B)): precluded the formation of both RBM5-19 and transacylated products
